# According to patent publication US20250197376A1, “PYRAZINE AMIDE DERIVATIVES” (Novartis AG, priority 2022, published 2025):
# Test system: 3D7 P. falciparum strain
# Experiment: P. falciparum 3D7 parasite proliferation assay (SYBR Green)
# Type: cell-based
# Conditions: Plasmodium falciparum, Erythrocyte; 3D7 P. falciparum infected human erythrocytes, 72 hours, SYBR Green fluorescence; read-out: Pf3D7 Activity
# Protocol: The following assay illustrates the invention without in any way limiting the scope of the invention. This parasite proliferation assay measures the increase in parasite DNA content using a DNA intercalating dye, SYBR Green®. 3D7 P. falciparum strain is grown in complete culturing media until parasitemia reaches 3% to 8% with O+ human erythrocytes. 20 μl of screening media is dispensed into 384 well assay plates. 50 nl of compounds of the invention (in DMSO), including antimalarial controls (mefloquine, pyrimethamine and artemisinin), are then transferred into the assay plates, as well as DMSO alone to serve as a negative control for inhibition. Then 30 μl of a suspension of a 3D7 P. falciparum infected erythrocytes in screening media is dispensed into the assay plates such that the final hematocrit is 2.5% with a final parasitemia of 0.3%. The plates are placed in a 37° C. incubator for 72 hours in a low oxygen environment containing 93% N2, 4% CO2, and 3% O2 gas mixture. 10 μl of lysis buffer (saponin, triton-X, EDTA) containing a 10× solution of SYBR Green […] in RPMI media is dispensed into the plates. The plates are lidded and kept at room temperature overnight for the lysis of the infected red blood cells. The fluorescence intensity is measured (excitation […], emission 530 nm) using the Envision™ system (Perkin Elmer). The percentage inhibition of 50%, EC50, is calculated for each compound.
row,SMILES,EC50 [µM]
1,"Cc1ccc2c(C)c(-c3cncc(C(=O)NCC(C)(C)N)n3)[nH]c2c1 [Example 45, N-(2-Amino-2-methylpropyl)-6-(3,6-dimethyl-1H-indol-2-yl)pyrazine-2-carboxamide]",< 0.01
2,"CC(C)c1c(-c2cncc(C(=O)NCC(C)(C)N)n2)[nH]c2ccccc12 [Example 52, N-(2-amino-2-methylpropyl)-6-(3-isopropyl-1H-indol-2-yl)pyrazine-2-carboxamide]",0.01 to 0.1
3,"CC(C)(N)CNC(=O)c1cncc(-c2[nH]c3ccccc3c2Cl)n1 [Example 49, N-(2-amino-2-methylpropyl)-6-(3-chloro-1H-indol-2-yl)pyrazine-2-carboxamide]",0.01 to 0.1
4,"CC(C)(N)CNC(=O)c1cncc(-c2cc3cc(F)c(F)cc3[nH]2)n1 [Example 20, N-(2-amino-2-methylpropyl)-6-(5,6-difluoro-1H-indol-2-yl)pyrazine-2-carboxamide]",0.01 to 0.1
5,"Cc1c(-c2cncc(C(=O)NCC(C)(C)N)n2)[nH]c2c1CCC(C)(C)C2 [Example 76, N-(2-Amino-2-methylpropyl)-6-(3,6,6-trimethyl-4,5,6,7-tetrahydro-1H-indol-2-yl)pyrazine-2-carboxamide]",0.01 to 0.1
6,"CC(C)(N)CNC(=O)c1cncc(-c2[nH]c3ccccc3c2C#N)n1 [Example 57, N-(2-amino-2-methylpropyl)-6-(3-cyano-1H-indol-2-yl)pyrazine-2-carboxamide]",> 0.1
7,"CC(C)(N)CNC(=O)c1cncc(-c2cc3cc(S(F)(F)(F)(F)F)ccc3[nH]2)n1 [Example 46, N-(2-amino-2-methylpropyl)-6-(5-(pentafluoro-λ^6-sulfaneyl)-1H-indol-2-yl)pyrazine-2-carboxamide]",0.01 to 0.1
8,"CC(C)(N)CNC(=O)c1cncc(-c2cc3ccc(F)cc3[nH]2)n1 [Example 21, N-(2-amino-2-methylpropyl)-6-(6-fluoro-1H-indol-2-yl)pyrazine-2-carboxamide]",0.01 to 0.1
9,"CC(C)(N)CNC(=O)c1cncc(-c2[nH]c3ccc(OC(F)(F)F)cc3c2Cl)n1 [Example 106, N-(2-Amino-2-methylpropyl)-6-(3-chloro-5-(trifluoromethoxy)-1H-indol-2-yl)pyrazine-2-carboxamide]",< 0.01
10,"CCOC(=O)c1cc2[nH]c(-c3cncc(C(=O)NCC(C)(C)N)n3)c(C)c2s1 [Example 72, Ethyl 5-(6-((2-amino-2-methylpropyl)carbamoyl)pyrazin-2-yl)-6-methyl-4H-thieno[3,2-b]pyrrole-2-carboxylate]",< 0.01
11,"CC(C)(N)CNC(=O)c1cncc(-c2cc3cc(F)c(Cl)nc3[nH]2)n1 [Example 33, N-(2-amino-2-methylpropyl)-6-(6-chloro-5-fluoro-1H-pyrrolo[2,3-b]pyridin-2-yl)pyrazine-2-carboxamide]",> 0.1
12,"Cc1c(-c2cncc(C(=O)NCC3(N)CCC3)n2)[nH]c2ccccc12 [Example 84, N-((1-aminocyclobutyl)methyl)-6-(3-methyl-1H-indol-2-yl)pyrazine-2-carboxamide]",0.01 to 0.1
13,"Cc1c(-c2cncc(C(=O)NCC(C)(C)N)n2)[nH]c2ccc(S(F)(F)(F)(F)F)cc12 [Example 3, N-(2-amino-2-methylpropyl)-6-(3-methyl-5-(pentafluoro-λ^6-sulfaneyl)-1H-indol-2-yl)pyrazine-2-carboxamide]",< 0.01
14,"Cc1c(-c2cncc(C(=O)NCC(C)(C)N)n2)[nH]c2cc(Cl)c(F)cc12 [Example 1, N-(2-amino-2-methylpropyl)-6-(6-chloro-5-fluoro-3-methyl-1H-indol-2-yl)pyrazine-2-carboxamide]",< 0.01
15,"N[C@H]1CC[C@H](NC(=O)c2cncc(-c3cc4cc(OC(F)(F)F)ccc4[nH]3)n2)CC1 [Example 67, N-((1r,4r)-4-aminocyclohexyl)-6-(5-(trifluoromethoxy)-1H-indol-2-yl)pyrazine-2-carboxamide]",> 0.1
16,"Cc1c(-c2cncc(C(=O)NCC(C)(C)N)n2)[nH]c2ccc(OC(F)(F)F)cc12 [Example 5, N-(2-amino-2-methylpropyl)-6-(3-methyl-5-(trifluoromethoxy)-1H-indol-2-yl)pyrazine-2-carboxamide]",< 0.01
